Data as given in article PMC10360057 (2023).

What was measured:
[1] = test system: RNA 1 (RNA, riboswitch) GGCUGCUUGUCCUUUAAUGGUCCAGUC; test: native ESI MS; details: 9:1 H2O/CH3OH, 0.25 mM piperazine
[2] = test system: RNA 4 (RNA, riboswitch) CCCUGAUAGCUUGUCCUUUAAUGGUCCUAUCUGGAAAAUG; test: competitive native ESI MS; details: NH4+ 50 mM (ammonium bicarbonate); 9:1 H2O/CH3OH, 0.25 mM piperazine, pH ~7.5, 21 °C; RNA 1 as competing reference; overall, motifs A and B
[3] = test system: RNA 1 (RNA, riboswitch) GGCUGCUUGUCCUUUAAUGGUCCAGUC; test: ITC; details: K+ 100 mM (KCl), Mg2+ 2 mM (MgCl2); 50 mM MOPS, pH 7.5, 21 °C; two-site fit, site 1 of 2
[4] = test system: RNA 2 (RNA, riboswitch) CCGGCAUAGCUUGUCCUUUAAUGGUCCUAUGUCGAAAAUG; test: ITC; details: K+ 100 mM (KCl), Mg2+ 2 mM (MgCl2); 50 mM MOPS, pH 7.5, 21 °C; two-site fit, site 1 of 2
[5] = test system: RNA 2 (RNA, riboswitch) CCGGCAUAGCUUGUCCUUUAAUGGUCCUAUGUCGAAAAUG; test: competitive native ESI MS; details: NH4+ 50 mM (ammonium bicarbonate); 9:1 H2O/CH3OH, 0.25 mM piperazine, pH ~7.5, 21 °C; RNA 1 as competing reference; overall, motifs A and B
[6] = test system: RNA 3 (RNA, riboswitch) CCGUCAUAGCUUGUCCUUUAAUGGUCCUAUGACGAAAAUG; test: competitive native ESI MS; details: NH4+ 50 mM (ammonium bicarbonate); 9:1 H2O/CH3OH, 0.25 mM piperazine, pH ~7.5, 21 °C; RNA 1 as competing reference; overall, motifs A and B

KD ([1]; NH4+ 50 mM (ammonium bicarbonate), pH 7.5, 21 °C, single-site model)	KD [2]	KD [3]	KD [4]	KD [5]	KD [6]	KD ([1]; none added, pH ~6, room temperature, 1 μM RNA, 10 μM paromomycin)	Structure (SMILES)
700 ± 200 nM	500 ± 200 nM	2 ± 2 nM	400 ± 600 nM	500 ± 200 nM	500 ± 200 nM		NC[C@@H]1O[C@H](O[C@H]2[C@@H](O)[C@H](O[C@@H]3[C@@H](O)[C@H](N)C[C@H](N)[C@H]3O[C@H]3O[C@H](CN)[C@@H](O)[C@H](O)[C@H]3N)O[C@@H]2CO)[C@H](N)[C@@H](O)[C@@H]1O
						4600 ± 1400 nM	NC[C@@H]1O[C@H](O[C@H]2[C@@H](O)[C@H](O[C@@H]3[C@@H](O)[C@H](N)C[C@H](N)[C@H]3O[C@H]3O[C@H](CO)[C@@H](O)[C@H](O)[C@H]3N)O[C@@H]2CO)[C@H](N)[C@@H](O)[C@@H]1O
